Laboratory results reported in patent publication US20100087374A1, “Methods for Treatment and Diagnosis of Pulmonary Diseases Based on the Expression of SERCA2 Protein” (priority 2008, published 2010).

Key:
[1] = tested on: IL-8 and GM-CSF release; test: Ozone-mediated cytokine release with extracellular nucleotide supplementation; format: cell-based, human
Protocol: Ozone-mediated cytokine release was studied in polarized air-liquid interface cultures of non-CF and CF cell lines. 16HBEo- and CF4lo- cells were cultured on collagen coated 30 mm inserts. Once cells were polarized (8-10 days in culture) cells were exposed to 0, 100 or 200 ppb ozone with 200 μl media on the apical surface. At the end of exposure (18 h) additional 200 μl media was added to the apical surface. Aliquots were collected after 4 h and analyzed for the cytokine as described before. […] Apical media was collected and analyzed for IL-8 and GM-CSF.

[2] = tested on: Primary human bronchial epithelial cells; test: Cell death after ozone exposure with CFTRinh172; format: cell-based; conditions: 20 μM
Protocol: For assessing ozone toxicity, primary human airway epithelial cells were transfected either with a control or SERCA2 siRNA for 24 h and exposed to 0 ppb or 200 ppb ozone for 18 h. Following exposure, cells were analyzed for cell death using Vybrant apoptosis assay kit (Molecular Probes, Eugene, Oreg.), as described before (63). In this method, apoptotic cells bearing phosphatidylserine in the plasma membrane outer leaflet were identified as those binding Alexa Fluor 488-labeled annexin V and necrotic cells as those binding fluorescent DNA-binding dye SYTOX Green. The Alexa Fluor-488 labeled annexin-positive apoptotic and Sytox green-positive dead cells were quantified by flow cytometry. The columns represent means of data and * indicates significant difference (p<0.05) from 0 ppb controls cells. # indicates significant difference from 200 ppb controls (n=3). This experiment was repeated 4 times.
Exposure of airway epithelial cells to ozone at precise levels was carried out in a computer controlled in vitro exposure chamber as described previously (78). Primary human bronchial epithelial cells cultured on collagen-coated 6-well plates were treated with 20 μM CFTRinh172 for 30 min and then exposed to either 0 ppb (−) or 200 ppb (+) ozone. ATP content of the extracellular media was analyzed after 30 min and cell death was estimated after 8 h of ozone exposure as described in the Methods. […]

[3] = tested on: Primary human bronchial epithelial cells; test: Ozone-mediated extracellular ATP release with CFTRinh172; format: cell-based; conditions: 20 μM for 30 min, then 200 ppb ozone 30 min
Protocol: Exposure of airway epithelial cells to ozone at precise levels was carried out in a computer controlled in vitro exposure chamber as described previously (78). Primary human bronchial epithelial cells cultured on collagen-coated 6-well plates were treated with 20 μM CFTRinh172 for 30 min and then exposed to either 0 ppb (−) or 200 ppb (+) ozone. ATP content of the extracellular media was analyzed after 30 min and cell death was estimated after 8 h of ozone exposure as described in the Methods. The data shown is a representative of 3 experiments (n=6). The bars represent means (SEM) of data and * indicates significant difference (p<0.05) from 0 ppb (− ozone) controls and # indicates significant difference (p<0.05) from 200 ppb exposed cells without CFTRinh172.

[4] = tested on: primary human bronchial epithelial (HBE), C-38 and IB3-1 cells; test: Cytotoxicity of 24 h CFTRinh172 incubation; format: cell-based; conditions: 20 μM
[5] = tested on: SERCA2 protein; test: SERCA2 protein expression by Western blot after CFTRinh172 treatment; format: cell-based, human; conditions: 20 μM, 24 h
[6] = tested on: IL-8 release; test: Ozone-mediated IL-8 release with NF-κB inhibitor preincubation; format: cell-based, human; conditions: CF cells; 10 μM preincubation 30 min; ozone 18 h
Protocol: Ozone-mediated cytokine release was studied in polarized air-liquid interface cultures of non-CF and CF cell lines. 16HBEo- and CF4lo- cells were cultured on collagen coated 30 mm inserts. Once cells were polarized (8-10 days in culture) cells were exposed to 0, 100 or 200 ppb ozone with 200 μl media on the apical surface. At the end of exposure (18 h) additional 200 μl media was added to the apical surface. Aliquots were collected after 4 h and analyzed for the cytokine as described before.
Results are shown in FIG. 18; IL-8 (18A), G-CSF (18B) or GM-CSF (18C). Values are means±SE; n=6, and the figure is a representative of 4 individual experiments; * Significant difference from 0 ppb control, P<0.05 and # Significant difference from non-CF, P<0.05. Effect of preincubation of cells for 30 min with 10 μM [6-amino-4-(4-phenoxyphenylethylamino)quinazoline] For analysis of NF-κB activation, nuclear p65 was measured in non-CF and CF cells after exposure to ozone (E). As described above, cells were harvested and nuclear lysates were prepared after exposure to 200 ppb ozone. The cellular fractions were assessed for p65. Values are means±SE; n=6 and the data is a representative of 2 individual experiments; * Significant difference from 0 ppb control, P<0.05 and # Significant difference from non-CF, P<0.05.

[7] = tested on: IL-8 release; test: IL-8 release after thapsigargin preincubation and ozone; format: cell-based, human; conditions: primary airway epithelial cells
Protocol: Primary airway epithelial cells were cultured on collagen coated 6-well plates. Cells were preincubated with 2 μM thapsigargin for 30 min and then exposed to 200 ppb ozone for 18 h. The supernatant media was collected and analyzed for cytokines as described before. Values are means±SE; n=6 and the data is a representative of 2 individual experiments; * Significant difference from 0 ppb control, P<0.05 and # Significant difference from ozone exposed untreated cells, P<0.05.

[8] = CF45o- cells, 10 μM preincubation 30 min, ozone 200 ppb, 18 h

For `Nc1ncnc2c1ncn2[C@@H]1O[C@H](COP(=O)(O)OP(=O)(O)OP(=O)(O)O)[C@@H](O)[C@H]1O` [ATP], the GM-CSF release [1, 8] was “enhanced” and the IL-8 release [1, 8] was “enhanced”.

In the case of `O=C(O)c1ccc(/C=C2\SC(=S)N(c3cccc(C(F)(F)F)c3)C2=O)cc1` [CFTRinh172], the “cytotoxicity of inhibitor itself” value ([2]; 0 ppb ozone) is reported as “negligible cytotoxicity”, the “cell death in ozone” value ([2]; 200 ppb ozone 8 h) is reported as “further enhanced the cell death” and the “Ozone-mediated release of ATP” value [3] is reported as “completely abolished”. The cytotoxicity [4] was “did not cause cytotoxicity”, the SERCA2 expression ([5]; parent CF cell line IB3-1) was “did not cause a further decrease” and the SERCA2 protein levels ([5]; primary human bronchial epithelial (HBE) cells, air-liquid interface) was “significant decrease”. For the same compound, the SERCA2 protein levels ([5]; wt-CFTR-corrected C-38 cells) was “significant decrease”.

With `Nc1ccc2ncnc(NCCc3ccc(Oc4ccccc4)cc3)c2c1` [NF-kB inhibitor, 6-amino-4-(4-phenoxyphenylethylamino)quinazoline] the “IL-8 levels in ozone” value [6] was “drop to control values”.

`C/C=C(/C)C(=O)O[C@H]1C(C)=C2[C@H]([C@@H]1OC(=O)CCCCCCC)[C@@](C)(OC(C)=O)C[C@H](OC(=O)CCC)[C@@]1(O)[C@H]2OC(=O)[C@@]1(C)O` [Thapsigargin, thapsigargin] was tested, and the “ozone mediated IL-8 release” value ([7]; 2 μM for 30 min, then 200 ppb ozone 18 h) was “further augmented” and the IL-8 release ([7]; 2 μM, control, 0 ppb exposed cells) was “enhanced”.

For `O=c1ccn([C@@H]2O[C@H](COP(=O)(O)OP(=O)(O)OP(=O)(O)O)[C@@H](O)[C@H]2O)c(=O)[nH]1` [UTP], the ozone-mediated cytokine release ([1]; CF cells, data not shown) was “enhanced”.
